Patent US10517889B2, “Modulators of SMAD7 expression” (Ionis Pharmaceuticals, Inc., priority 2017, dated 2019)
Values joined by “and” are separate entries in the source; they are usually repeats but may differ in a detail not shown here. Identical values can stand only once. Strand notation (5' to 3'): a small letter for the sugar, then the base; units joined by * are phosphorothioate-linked, units joined directly phosphodiester-linked; [ ] holds rarer units or linkages, { } end groups; capitals alone tell only the bases. k = constrained ethyl (cEt); [5mC] = 5-methylcytosine; d = 2'-deoxy (DNA)

Legend:
[1] = system: human SMAD7 mRNA; assay: Dose-dependent inhibition of human SMAD7 mRNA expression in Hep3B cells (Example 3, Study 1 and 2); format: cell-based; settings: electroporation; for % inhibition of SMAD7 mRNA expression: approximately 16 hours; for IC50: Study 2 (740-20000 nM)
Experimental: The antisense oligonucleotides were tested in a series of experiments that had similar culture conditions as described below.
(§1) Cells were plated at a density of 20,000 cells per well and transfected using electroporation with 0.31 μM, 1.25 μM, 5.00 μM, or 20.00 μM concentrations of antisense oligonucleotide, as specified in the Tables below. ION 483663 was included in the assays for comparison. After a treatment period of approximately 16 hours, RNA was isolated from the cells and SMAD7 mRNA levels were measured by quantitative real-time PCR. Primer probe set RTS5062 was used to measure human SMAD7 mRNA levels. SMAD7 mRNA levels were adjusted according to total RNA content, as measured by RIBOGREEN®. Results are presented as percent inhibition of SMAD7 mRNA expression, relative to untreated control cells.
The half maximal inhibitory concentration (IC50) of each oligonucleotide is also presented.
as §1, with “0.74” for “0.31”, “2.22” for “1.25”, “6.67” for “5.00”, “below.” for “below. ION 483663 was included in the assays for comparison.”

[2] = system: human SMAD7 mRNA; assay: Antisense inhibition of human SMAD7 mRNA expression in Hep3B cells by 3-10-3 cEt gapmers, 10,000 nM, electroporation (Example 2); format: cell-based; settings: approximately 24 hours
Method in brief: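 Hep3B, 20,000 cells/well; electroporation, 10,000 nM ASO; ~24 h. Readout: SMAD7 mRNA by qRT-PCR (RTS5062), RIBOGREEN-normalised; % inhibition vs untreated.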

[3] = 740 nM, Study 2, relative to untreated control cells
[4] = SMAD7 mRNA, Hep3B cells, 10,000 nM antisense oligonucleotide, electroporation, primer probe set RTS5062, relative to untreated control cells
[5] = Hep3B cells, electroporation with 10,000 nM antisense oligonucleotide, primer probe set RTS5062, relative to untreated control cells
[6] = Hep3B cells, electroporation with 10,000 nM antisense oligonucleotide, SMAD7 mRNA by RT-PCR (RTS5062), relative to untreated control cells

Substance	% inhibition of SMAD7 mRNA expression [1, 3] [%]	% inhibition of SMAD7 mRNA expression ([1]; 2220 nM, Study 2) [%]	% inhibition of SMAD7 mRNA expression ([1]; 6670.0 nM, Study 2)	% inhibition of SMAD7 mRNA expression ([1]; 20000.0 nM, Study 2)	IC50 [1] [µM]	% Inhibition [2, 4] [%]	% inhibition of SMAD7 mRNA expression [2, 5] [%]	% Inhibition ([2]; Hep3B cells, electroporation with 10,000 nM antisense oligonucleotide, RTS5062, percent inhibition of SMAD7 mRNA relative to untreated control cells) [%]	% Inhibition [2, 6] [%]	% Inhibition [2, 5] [%]	% inhibition of SMAD7 mRNA expression ([2]; Hep3B cells, electroporation, 10,000 nM, 3-10-3 cEt gapmers targeting SEQ ID NO: 3 and 4) [%]	% Inhibition ([2]; Hep3B cells, 10,000 nM antisense oligonucleotide, electroporation, RT-PCR primer probe set RTS5062, relative to untreated control cells) [%]
772553 (antisense kT*k[5mC]*kT*dT*dG*dA*dG*d[5mC]*dA*d[5mC]*d[5mC]*dG*dA*kG*kT*kG) [compound 772553]	36	45	71%	89%	2	59	–	–	–	–	–	–
772560 (antisense kT*kT*kG*d[5mC]*dA*d[5mC]*dA*dG*d[5mC]*dA*dG*dG*dA*kG*kG*kG) [compound 772560]	0	32	57%	82%	5	–	66	–	–	–	–	–
772578 (kG*kG*kT*dA*dT*d[5mC]*dT*dG*dG*dA*dG*dT*dA*kA*kG*kG; antisense) [compound 772578]	54	44	70%	86%	1	63	–	–	–	–	–	–
772732 (kG*kA*kT*dA*dT*dT*dT*dA*dG*d[5mC]*dT*dG*dT*k[5mC]*kA*kG; antisense) [compound 772732]	27	60	63%	68%	3	58	–	–	–	–	–	–
772842 (kG*kT*kT*dA*dA*dT*dA*dA*dT*dA*dT*d[5mC]*dT*kT*k[5mC]*k[5mC]; antisense) [compound 772842]	3	23	65%	72%	6	–	–	79	–	–	–	–
772858 (kA*kG*kT*dG*dT*dT*d[5mC]*dA*dA*d[5mC]*dA*dA*dT*kG*k[5mC]*kT; antisense) [compound 772858]	7	26	29%	51%	> 20	62	–	–	–	–	–	–
790476 (kT*kT*k[5mC]*dT*dT*dG*dA*dG*d[5mC]*dA*d[5mC]*d[5mC]*dG*kA*kG*kT; antisense) [compound 790476]	8	38	63%	69%	5	–	–	–	67	–	–	–
790488 (kT*kT*k[5mC]*d[5mC]*dG*dA*dG*dG*dA*dA*dT*dG*d[5mC]*k[5mC]*kT*kG; antisense) [compound 790488]	12	34	46%	67%	7	81	–	–	–	–	–	–
790614 (kG*kA*kG*dA*dA*dT*dG*d[5mC]*dT*dT*d[5mC]*dT*d[5mC]*kT*kT*kG; antisense) [compound 790614]	0	29	45%	54%	11	–	–	–	–	70	–	–
790616 (k[5mC]*kT*kA*dA*dA*dT*dT*dT*d[5mC]*d[5mC]*dA*dA*dT*kG*kA*kG; antisense) [compound 790616]	0	8	26%	65%	13	66	–	–	–	–	–	–
790636 (kA*kG*k[5mC]*dA*dT*d[5mC]*dT*dG*dG*dA*d[5mC]*dA*dG*kT*k[5mC]*kA; antisense) [compound 790636]	89	93	95%	99%	< 0.7	–	–	–	–	–	95	–
790666 (kT*kA*kA*dT*dT*dT*dA*dT*dG*dA*d[5mC]*dA*dA*k[5mC]*kG*k[5mC]; antisense) [compound 790666]	13	49	54%	74%	4	72	–	–	–	–	–	–
790732 (kG*k[5mC]*kT*dT*dA*dT*dT*dT*d[5mC]*dA*dT*dG*dT*kG*kG*kT; antisense) [compound 790732]	70	78	88%	93%	2	69	–	–	–	–	–	–
790736 (kT*k[5mC]*kA*dA*dA*d[5mC]*dT*dT*dT*dG*dA*dA*dG*k[5mC]*k[5mC]*kT; antisense) [compound 790736]	32	56	68%	74%	> 20	60	–	–	–	–	–	–
798662 (kG*k[5mC]*kT*d[5mC]*d[5mC]*dG*dG*d[5mC]*dT*dG*d[5mC]*d[5mC]*d[5mC]*k[5mC]*kA*k[5mC]; antisense) [compound 798662]	0	28	22%	25%	> 20	–	62	–	–	–	–	–
798686 (antisense kG*kA*kG*dG*dA*dG*dG*d[5mC]*dG*dA*dG*dG*dA*kG*kA*kA) [compound 798686]	0	0	2%	33%	5	–	59	–	–	–	–	–
798687 (antisense kG*kG*k[5mC]*dG*dA*dG*dG*dA*dG*dG*d[5mC]*dG*dA*kG*kG*kA) [compound 798687]	27	42	60%	61%	7	–	64	–	–	–	–	–
798696 (antisense kT*k[5mC]*k[5mC]*d[5mC]*d[5mC]*d[5mC]*dT*dG*d[5mC]*dG*d[5mC]*d[5mC]*d[5mC]*kT*k[5mC]*k[5mC]) [compound 798696]	0	33	58%	66%	< 0.7	–	–	–	82	–	–	–
798733 (antisense k[5mC]*kG*k[5mC]*dG*dG*d[5mC]*dT*dG*dG*d[5mC]*dG*dG*dG*kT*kG*kG) [compound 798733]	58	84	88%	95%	4	–	–	–	72	–	–	–
798764 (kA*k[5mC]*kT*dT*dT*dG*d[5mC]*dA*d[5mC]*dA*dG*d[5mC]*dA*kG*kG*kA; antisense) [compound 798764]	–	–	57% and 72% and 54%	93% and 87% and 65% and 83%	1	75	69	–	–	–	–	–
798823 (kA*k[5mC]*kA*dG*dT*dA*dG*dA*dG*d[5mC]*d[5mC]*dT*d[5mC]*k[5mC]*k[5mC]*k[5mC]; antisense) [compound 798823]	27	27	63%	70%	> 20	–	–	–	–	–	–	74
830212 (kG*k[5mC]*kA*dG*dG*dG*dT*dG*dG*dA*dG*dA*d[5mC]*k[5mC]*kG*kG; antisense) [compound 830212]	–	–	–	–	–	–	–	–	43	–	–	–
